For one test, the system named is HCC-2998. As to the kind of experiment: NCI60 5-dose screen, HCC-2998. The settings on record: Homo sapiens, colon cancer, Fig 1D, read-out: Log10 GI50 (HCC-2998) (converted). It is filed as cell-based. On the procedure: (§1) The screening methodology used in the NCI60 Cell 5-Doses screen is described in detail at https://dtp.cancer.gov/discovery_development/nci-60/methodology.htm. Briefly, cells are seeded in 96 well plates at an appropriate density and incubated for 1 day. After 1 day, some of the plates are processed to determine a time zero density. To the remaining plates, compounds are added over a 5-log M concentration range (1 log dilutions from 10^-4M to 10^-8M). Plates are incubated for two additional days, then fixed and stained with sulforhodamine B. Growth inhibition is calculated relative to cells without drug treatment and the time zero control. The GI50 is the concentration of a compound that causes 50% growth inhibition, relative to the no drug control.

In another test the test system is BT-549. Briefly: NCI60 5-dose screen, BT-549. It is filed as cell-based. The note with it: Homo sapiens, breast cancer, Fig 1D, read-out: Log10 GI50 (BT-549) (converted). As to the method:
as §1

In another test the test system is 786-0. Briefly: NCI60 5-dose screen, 786-0. It is filed as cell-based. The settings on record: Homo sapiens, renal cancer, Fig 1D, read-out: Log10 GI50 (786-0) (converted). As to the method:
as §1

Test [1] concerns microtubule network in A549 cells. As to the kind of experiment: Immunofluorescence staining of alpha-tubulin in A549 cells. The format is cell-based, human. The settings on record: 4 hours, 250 nM. On the procedure:
Non-small cell lung carcinoma A549 cells were seeded at 50,000 cells/well in an 8-well Nunc™ Lab-Tek™ chambered coverglass slide. After overnight incubation, they were treated with compound or carrier (DMSO) for 4 hours and then fixed with 4% PFA, washed and permeabilized (0.2% Triton X-100 in PBS). Further treatment was performed according to standard immunofluorescence procedures, employing 10% normal goat serum (Thermo Fisher Scientific) as blocking medium and as antibody diluent. Employed antibodies were mouse anti-alpha tubulin (sc-5286, Santa Cruz Biotechnology) at 1:300 dilution and secondary goat anti-mouse IgG conjugated to Alexa Fluor® 488 (A11001, Invitrogen, Thermo Fisher Scientific). Cell nuclei were counterstained with DAPI. Images were collected with a Leica TCS SP5 confocal microscope employing a HCX PL APO 63x (NA 1.2) water immersion objective.

Another test has as its system HT-29 cells. As to the kind of experiment: Clonogenic assay on HT-29 cells. The format is cell-based. The note with it: Homo sapiens, 144 h; HT-29, 6 days of incubation, colonies counted; read-out: IC50 (HT-29 cell proliferation, clonogenic assay). As to the method: All experiments were performed under standard cell culture conditions at 37°C and 5% CO2. Colorectal adenocarcinoma HT-29 cells were seeded at 300 cells/well in triplicate in six well microtiter plates in RPMI-1640 medium supplemented with 10% fetal bovine serum and 25 μg/ml gentamicin (complete medium). Twenty-four hours later, the compounds were added in complete medium in final concentrations ranging from 10 μM to 0.1 nM. Cells were allowed to grow until they formed colonies for 6 days. The colonies were fixed with 100% methanol, stained with Trypan blue 0.4% in saline and the number of colonies was counted. The number of colonies in the treated wells was normalized to the number obtained in the untreated wells. Three biological independent experiments were performed for each compound.

In another test the test system is IGROV1. As to the kind of experiment: NCI60 5-dose screen, IGROV1. It is filed as cell-based. The settings on record: Homo sapiens, IGROV-1; ovarian cancer; Fig 1D; read-out: Log10 GI50 (IGROV1) (converted). On the procedure: as §1
In a further test the test system is A498. Briefly: NCI60 5-dose screen, A498. It is filed as cell-based. The note with it: Homo sapiens, renal cancer, Fig 1D, read-out: Log10 GI50 (A498) (converted). As to the method: as §1
The test system of the next test is Jurkat cells. As to the kind of experiment: 3-day MTS cell viability assay, Jurkat. The format is cell-based. The settings on record: Homo sapiens, 72 hours, Fig 1C. As to the method:
All cancer cell lines (HT-29: colorectal adenocarcinoma, HCT-116: colorectal carcinoma, A549: lung epithelial carcinoma, PC3: prostate adenocarcinoma, Jurkat: acute T-cell leukemia, BC-1: primary effusion lymphoma) and the normal human embryonal lung fibroblast cell line MRC-5 were acquired from the American Type Culture Collection (ATCC). All cell lines were cultured as recommended by the suppliers. Culture media were purchased from Gibco (Thermo Fisher Scientific) and supplemented with 10 to 20% fetal bovine serum (HyClone, GE Healthcare Life Sciences) and 20–25 μg/mL gentamicin (Gibco, Thermo Fisher Scientific). […]
Cell viability in cancer cell lines treated with compound was measured in a 3-day MTS cell proliferation assay using the CellTiter 96 AQueous Non-Radioactive Cell Proliferation Assay reagent (Promega) according to the manufacturer’s instructions. Absorbance was read at 490 nm on a SaFire II microplate reader (Tecan). CC50 values were calculated by fitting the obtained MTS cell viability data in GraphPad Prism using a 4-parameter log–based fit for inhibitors. Apoptosis induction and cell death upon compound treatment in PBMC was measured using the Alexa Fluor 488 Annexin V/Dead Cell Apoptosis Kit (Thermo Fisher Scientific), with readout on a FACSCanto II flow cytometer (BD Biosciences). […] The compounds were evaluated in duplo in two independent experiments.
(Tetrazolium assays rely on reduction of a dye to a coloured formazan, in cell work by metabolically active cells.)

Another test has as its system NCI-H522. Briefly: NCI60 5-dose screen, NCI-H522. The format is cell-based. The note with it: Homo sapiens, non-small cell lung cancer, Fig 1D, read-out: Log10 GI50 (NCI-H522) (converted). On the procedure:
as §1

The next test concerns SF-295. As to the kind of experiment: NCI60 5-dose screen, SF-295. The format is cell-based. The settings on record: Homo sapiens, CNS cancer, Fig 1D, read-out: Log10 GI50 (SF-295) (converted). On the procedure:
as §1

A further test deals with CAKI-1. Briefly: NCI60 5-dose screen, CAKI-1. It is filed as cell-based. The note with it: Homo sapiens, renal cancer, Fig 1D, read-out: Log10 GI50 (CAKI-1) (converted). On the procedure: as §1
A further test concerns LOX IMVI. As to the kind of experiment: NCI60 5-dose screen, LOX IMVI. The format is cell-based. The note with it: Homo sapiens, melanoma, Fig 1D, read-out: Log10 GI50 (LOX IMVI) (converted). On the procedure:
as §1

A further test has as its system SNB-75. As to the kind of experiment: NCI60 5-dose screen, SNB-75. The format is cell-based. The note with it: Homo sapiens, CNS cancer, Fig 1D, read-out: Log10 GI50 (SNB-75) (converted). On the procedure:
as §1

Another test has as its system MOLT-4. Briefly: NCI60 5-dose screen, MOLT-4. The format is cell-based. The note with it: Homo sapiens, leukemia, Fig 1D, read-out: Log10 GI50 (MOLT-4) (converted). On the procedure:
as §1

In general, GI50 refers to the concentration giving 50% growth inhibition.

pIC50: −log10 of the molar value.

Turning to `Cc1cc(C)cc(Nc2ccc([N+](=O)[O-])c(NCCN3CCOCC3)n2)c1` [Compound 4AZA2891, 6-(3,5-dimethylanilino)-2-(2-morpholinoethylamino)-3-nitropyridine], the GI50 in the test on HCC-2998 is 28.8 nM; in the test on BT-549 it was 58.9 nM; in the test on 786-0 it was 52.5 nM; in the test with IGROV1 it was 49 nM; in the test with A498, less than 10 nM; with NCI-H522, less than 10 nM. Also, the GI50 in the test with SF-295 is less than 10 nM; in the test on CAKI-1 it was less than 10 nM; in the test on LOX IMVI, 11.5 nM; with SNB-75 it was less than 10 nM; in the test on MOLT-4 it was 56.2 nM. The “effect on microtubule network” value in test [1] is “disintegrate the microtubule network”. Further, the values for the pIC50 in the test on HT-29 cells and in the test on Jurkat cells were 8.27 and 7.70, respectively.

`Cc1ccnc(Nc2ccc([N+](=O)[O-])c(NCCN3CCOCC3)n2)c1` [Compound 4AZA2996, N^6-(4-methylpyridin-2-yl)-N^2-(2-morpholinoethyl)-3-nitropyridine-2,6-diamine]: the GI50 with HCC-2998 was 17 nM; in the test on BT-549, 19.1 nM; with 786-0 it was 12.9 nM; with IGROV1, 57.5 nM; with A498 it was less than 10 nM; in the test with NCI-H522, less than 10 nM. In addition, the GI50 is less than 10 nM in the test with SF-295; less than 10 nM with CAKI-1; less than 10 nM in the test with LOX IMVI; less than 10 nM with SNB-75; 35.5 nM with MOLT-4. The “effect on microtubule network” value in [1] was “disintegrate the microtubule network”. Moreover, the pIC50 is 8.40 in the test on HT-29 cells and 7.85 in the test with Jurkat cells.
